Measurements reported in PubChem BioAssay AID1963437 (Molecular Pharmacology Branch, DTP, NCI, 2024).

System: OVCAR-8 complex spheroid, growth inhibition
Test: Anticancer human tumor OVCAR-8 cell line growth inhibition [Asc];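 note: spheroids exposed to agents for 7 days before readout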;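 for viability, T/C: percent viability relative to DMSO vehicle wells taken as 100%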
Conditions: for IC50: curve of first compound; for viability, T/C: stronger effect = lower value
In short: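 Spheroid model: tumor line + HUVEC + hMSC. Single agents and combinations; top conc. at/near clinical Cmax (10 microM if undetermined), half-log dilutions. DMSO stocks at 800-fold test concentration.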

[1] = second compound 0.0316 µM, first compound 0.00316 µM
[2] = second compound 0.0316 µM, first compound 0.01 µM
[3] = second compound 0.0316 µM, first compound 0.0316 µM
[4] = second compound 0.0316 µM, first compound 0.1 µM
[5] = second compound 0.1 µM, first compound 0.00316 µM
[6] = second compound 0.1 µM, first compound 0.01 µM
[7] = second compound 0.1 µM, first compound 0.0316 µM
[8] = second compound 0.1 µM, first compound 0.1 µM
[9] = second compound 0.316 µM, first compound 0.00316 µM
[10] = second compound 0.316 µM, first compound 0.01 µM
[11] = second compound 0.316 µM, first compound 0.0316 µM
[12] = second compound 0.316 µM, first compound 0.1 µM
[13] = second compound 1 µM, first compound 0.00316 µM
[14] = second compound 1 µM, first compound 0.01 µM
[15] = second compound 1 µM, first compound 0.0316 µM
[16] = second compound 1 µM, first compound 0.1 µM
[17] = second compound 3.16 µM, first compound 0.00316 µM
[18] = second compound 3.16 µM, first compound 0.01 µM
[19] = second compound 3.16 µM, first compound 0.0316 µM
[20] = second compound 3.16 µM, first compound 0.1 µM
[21] = second compound 10 µM, first compound 0.00316 µM
[22] = second compound 10 µM, first compound 0.01 µM
[23] = second compound 10 µM, first compound 0.0316 µM
[24] = second compound 10 µM, first compound 0.1 µM

Work on `COc1c(OCCCN2CCOCC2)ccc2c3n(c(=NC(=O)c4cnc(N)nc4)nc12)CCN3` + Cc1c(S(C)(=O)=O)c(-c2cc(F)cc(N3CCN(c4ccc(NS(=O)(=O)c5ccc(NC(CCN6CCC(C(=O)OCCCP(=O)(O)O)CC6)CSc6ccccc6)c(S(=O)(=O)C(F)(F)F)c5)cc4)CC3)c2)c(-c2ccc(Cl)cc2)n1C(C)C yielded an IC50 (second compound 0.0316 µM) of over 1000 nM, an IC50 (second compound 0.1 µM) of over 1000 nM and an IC50 (second compound 0.316 µM) of over 1000 nM. The IC50 (second compound 1 µM) was over 1000 nM, the IC50 (second compound 3.16 µM) was over 1000 nM and the IC50 (second compound 10 µM) was over 1000 nM. It also gave a viability, T/C [1] of 114%, a viability, T/C [2] of 104% and a viability, T/C [3] of 128%. For the same compound, the viability, T/C [4] was 150%, the viability, T/C (second compound 0.0316 µM, first compound 0.316 µM) was 149% and the viability, T/C (second compound 0.0316 µM, first compound 1 µM) was 82.2%. The viability, T/C [5] was 100%, the viability, T/C [6] was 107% and the viability, T/C [7] was 142%. For the same compound, the viability, T/C [8] was 161%, the viability, T/C (second compound 0.1 µM, first compound 0.316 µM) was 145% and the viability, T/C (second compound 0.1 µM, first compound 1 µM) was 85.9%. For the same compound, the viability, T/C [9] was 91.6%, the viability, T/C [10] was 121% and the viability, T/C [11] was 154%. For the same compound, the viability, T/C [12] was 146%, the viability, T/C (second compound 0.316 µM, first compound 0.316 µM) was 140% and the viability, T/C (second compound 0.316 µM, first compound 1 µM) was 85.8%. For the same compound, the viability, T/C [13] was 114%, the viability, T/C [14] was 119% and the viability, T/C [15] was 167%. The viability, T/C [16] was 181%, the viability, T/C (second compound 1 µM, first compound 0.316 µM) was 142% and the viability, T/C (second compound 1 µM, first compound 1 µM) was 82.8%. For the same compound, the viability, T/C [17] was 144%, the viability, T/C [18] was 98.8% and the viability, T/C [19] was 136%. The viability, T/C [20] was 170%, the viability, T/C (second compound 3.16 µM, first compound 0.316 µM) was 135% and the viability, T/C (second compound 3.16 µM, first compound 1 µM) was 64.2%. The viability, T/C [21] was 131%, the viability, T/C [22] was 141% and the viability, T/C [23] was 146%. For the same compound, the viability, T/C [24] was 189%, the viability, T/C (second compound 10 µM, first compound 0.316 µM) was 143% and the viability, T/C (second compound 10 µM, first compound 1 µM) was 76.2%.

`NC1CCC(NC2CC2c2ccccc2)CC1` (centres undefined) + Cc1c(S(C)(=O)=O)c(-c2cc(F)cc(N3CCN(c4ccc(NS(=O)(=O)c5ccc(NC(CCN6CCC(C(=O)OCCCP(=O)(O)O)CC6)CSc6ccccc6)c(S(=O)(=O)C(F)(F)F)c5)cc4)CC3)c2)c(-c2ccc(Cl)cc2)n1C(C)C gave an IC50 (second compound 0.0316 µM) of over 100 nM, an IC50 (second compound 0.1 µM) of over 100 nM and an IC50 (second compound 0.316 µM) of over 100 nM. The IC50 (second compound 1 µM) was over 100 nM, the IC50 (second compound 3.16 µM) was over 100 nM and the IC50 (second compound 10 µM) was over 100 nM. It also gave a viability, T/C (second compound 0.0316 µM, first compound 0.000316 µM) of 111%, a viability, T/C (second compound 0.0316 µM, first compound 0.001 µM) of 109% and a viability, T/C [1] of 83.2%. The viability, T/C [2] was 101%, the viability, T/C [3] was 109% and the viability, T/C [4] was 80.5%. The viability, T/C (second compound 0.1 µM, first compound 0.000316 µM) was 97.5%, the viability, T/C (second compound 0.1 µM, first compound 0.001 µM) was 102% and the viability, T/C [5] was 93.4%. The viability, T/C [6] was 105%, the viability, T/C [7] was 120% and the viability, T/C [8] was 91.8%. It also gave a viability, T/C (second compound 0.316 µM, first compound 0.000316 µM) of 99.2%, a viability, T/C (second compound 0.316 µM, first compound 0.001 µM) of 97.3% and a viability, T/C [9] of 111%. It also gave a viability, T/C [10] of 100%, a viability, T/C [11] of 108% and a viability, T/C [12] of 106%. The viability, T/C (second compound 1 µM, first compound 0.000316 µM) was 118%, the viability, T/C (second compound 1 µM, first compound 0.001 µM) was 114% and the viability, T/C [13] was 103%. It also gave a viability, T/C [14] of 107%, a viability, T/C [15] of 132% and a viability, T/C [16] of 106%. It also gave a viability, T/C (second compound 3.16 µM, first compound 0.000316 µM) of 99.3%, a viability, T/C (second compound 3.16 µM, first compound 0.001 µM) of 101% and a viability, T/C [17] of 119%. It also gave a viability, T/C [18] of 118%, a viability, T/C [19] of 123% and a viability, T/C [20] of 104%. For the same compound, the viability, T/C (second compound 10 µM, first compound 0.000316 µM) was 105%, the viability, T/C (second compound 10 µM, first compound 0.001 µM) was 99.6% and the viability, T/C [21] was 113%. The viability, T/C [22] was 137%, the viability, T/C [23] was 133% and the viability, T/C [24] was 118%.
